Laboratory results: US6635629B2, “3-nitrogen-6,7-dioxygen steroids and uses related thereto” (Inflazyme Pharmaceuticals Ltd., priority 2000, dated 2003)
Read-outs that look alike come from different tables or passages of the source.

Assays:
[1] = Metabolic stability in human liver S9 fractions; type: in vitro ADME; conditions: 10 μM
From the text: The therapeutic effectiveness of a test compound can be often directly related to its metabolic stability in vivo. The majority of known, marketed drugs are metabolized by a group of enzymes known as P450 enzymes. The S9 fraction of human liver contains all the P450 enzymes and also cytoplasmic enzymes that may be involved in the metabolism of new chemical entities. Metabolism in vitro using human S9 fractions is a standard assay to evaluate relative metabolic stability of new compounds. The test is performed as follows.
Reagents are thawed on ice and combined to make up a Master Mix as follows: Potassium phosphate (100 mM, pH 7), G6P (0.25 mM), G6PDH (2 U/ml), NADPH (1 mM), UDP (0.25 mM), APPS (0.25 mM), and S9 fraction (2 mg/ml). A volume of 498 μl of the Master mix is dispensed into each microcentrifuge tube. A volume of 2 μl of 2.5 mM test compound (final concentration of 10 μM) is dispensed into the center of the lid of the appropriate tube, and the lids gently closed to prevent mixing. Synchronous combination of test compound and master mix is achieved by simultaneous ten times inversion of the tubes, which are then incubated at 37° C. and shaken at 150 rpm for the appropriate incubation times. While incubation is in progress, all 0 time samples are mixed individually by three times inversion followed by the immediate addition of 500 μl ice cold acetonitrile with three times inversion to stop the reaction. Immediately after each 15 minutes and 30 minutes incubation is complete, ice cold acetonitrile is added to each tube and the tubes mixed by three times inversion. All sample tubes are incubated at −80° C. for a minimum of 15 minutes, thawed and remixed by inversion. Aliquots of 650 μl are transferred to Chromatographic Specialties micro-spin filter system tubes (0.2 μm nylon membrane, C618505) and centrifuged at 13,000 rpm for 48 seconds. The sample filtrates are stored at −80° C.
Sample filtrates are analyzed on LCMS, and percent remaining after 15 and 30 minute incubation is calculated relative to the 0 minute incubation.
The metabolic stability of various compounds are summarized in Table 10 as the percent remaining after 15 or 30 minutes incubation with human liver S9 fractions.

Jurkat clone E6.1 cells = experiment: Antigen-induced (anti-CD3 mAb) calcium flux in Jurkat clone E6.1 cells; type: cell-based; conditions: 20 μM; anti-CD3 mAb 4 μg/mL; Fura 2AM
From the text: Elevation of cytoplasmic calcium concentration is a common and crucial event which follows the activation of many types of cell surface receptors. Increases in intracellular calcium that occur following agonist activation of inositol lipid hydrolysis are the results of calcium release from the endoplasmic reticulum and the influx of calcium through the plasma membrane. Increases in cytosolic calcium concentration are involved in many important cellular responses in the inflammatory process including adhesion, motility, gene expression, proliferation, and degranulation. Changes in intracellular calcium centrations can affect both short and long term cellular responses. An assay method to evaluate a test compound's impact on calcium flux is provided as follows.
The resulting supernatants are discarded and each pellet is washed in 10 mL HBSS. Cell suspensions are accumulated and centrifuged for 5 minutes at 900 RPM to form a cell pellet. The resulting supernatant is discarded and the pellet is resuspended in HBSS at 1×10^7 cells/mL. The cell suspension is transferred to a 20 mm petri dish and incubated at 37° C., 5% CO2 for 20 minutes.
One volume of Fura 2AM is mixed to one volume of detergent Pluronic F127. Cells are labeled with 4 μL of probe solution to each mL of cell suspension. The petri dish is wrapped in aluminum foil to protect from light and placed on a plate shaker for 30 minutes at room temperature.
The following steps are done in the laminar flow hood with the fluorescent lights turned off. The petri dish is removed from the shaker and the labeled cell suspension is transferred to a 15 mL conical tube and washed twice with HBSS as above. The cell pellet is resuspended in 12 mL HBSS and left wrapped in foil for 30 minutes at room temperature. The labeled cell suspension is aliquoted (100 μL/well) into a Dynex 96 well white opaque tissue culture plate. […] Selected compounds were tested for dose related activity. Test samples and activator (anti—CD3 mAb at final concentration of 4 μg/mL, PharMingen) are added manually (50 μL), such that the minimum time to acquire the first data point after stimulation is approximately 30 seconds. The calcium influx response to anti-CD3 mAb is measured as an “end point” assay. The entire plate is read in 100 seconds using a kinetic of 1 second per well.
The plate is read before the addition of anti-CD3 to monitor non-specific effect of samples/drugs. Fluorescence emission is measured at 510 nm with excitation alternating between 340 and 380 every second using an excitation/emission filter pair. Data from these dual wavelengths are represented as a ratio of 2 excitations wavelengths. This ratio is independent of intracellular dye and cell concentrations, enabling real comparison between experiments.

[2] = tested on: rat mast cell line (RBL-2H3); experiment: Antigen-induced release of hexosaminidase from a rat mast cell line (RBL-2H3); type: cell-based; conditions: tested at 0.3, 3, 10 and 30 μM, read-out: Hex IC50
Description: The anti-allergic effects of a compound of the present invention was evaluated by measuring its effect on antigen-induced secretion of hexosaminidase from a passively sensitized rat mast cell line. The ability of a test compound to inhibit the release of mast cell granule contents, e.g., histamine and hexosaminidase, is indicative of the anti-allergy and/or anti-asthma activity of the compound. Hexosaminidase is released from the mast cell granule along with histamine and other mediators during antigen challenge. The test is performed as follows.
RBL-2H3 cells are grown in culture and passively sensitized for 1 hour at 37° C. to dinitrophenol (DNP) using anti-human-DNP (IgE). Cells are incubated with test compound for 30 minutes at 37° C. and stimulated with 0.5 μg/ml DNP-HSA (antigen) for 30 minutes. Aliquots of the supernatant are removed and used to measure the amount of hexosaminidase released during challenge with the antigen. […] The effect of each test compound is determined as a percentage of the antigen-induced response (minus background release) obtained in the presence of DMSO alone. These values are used to determine the degrees of inhibition of antigen-induced hexosaminidase release from the cells.

[3] = tested on: sensitized Brown Norway rats; experiment: Ovalbumin-induced accumulation of inflammatory cells in lung lavage fluid of sensitized Brown Norway rats; type: in vivo, rat; conditions: p.o., corn oil vehicle, relative to control animals
Description: The ability of a compound to inhibit the allergen-induced accumulation of inflammatory cells such as eosinophils and neutrophils in the lavage fluid obtained from sensitized animals is indicative of that compound's anti-asthma activity. […] The test is conducted as follows.
Male Brown Norway rats are sensitized to ovalbumin by single intraperitoneal injection of 1 mg ovalbumin adsorbed to 100 mg A(OH)3 (alum) in 1 ml sterile saline (saline control rats receive only sterile saline) on day 1, and allowed to sensitize until day 21. […] Rats are challenged with 0.5% ovalbumin in saline generated using a Devillbis nebulizer for 60 min on day 21.
Forty-eight hrs after challenge, animals are sacrificed with an overdose of intraperitoneally-delivered sodium pentobarbitol and the lungs are lavaged with cold 2×7 ml phosphate buffered saline. The recovered lavage fluid is placed on ice. The bronchoalveolar lavage fluid is centrifuged and the supernatant removed. The pellet is resuspended in phosphate buffered saline at 4° C. Cytospins are prepared and stained for differentiation and enumeration of cell types.
Test compound was administered in 300 μl corn oil (Tables 7 and 8) or water (Table 9), which were used as vehicles. Control animals received 300 μl corn oil or water alone, i.e., no drug. […] A negative value in Table 7, 8, or 9 indicates an exacerbation of the effect over the control animal.

[4] = inhibition of DNP-HSA antigen-induced hexosaminidase release
[5] = 37° C., 15 min incubation, relative to 0 minute incubation
[6] = 37° C., 30 min incubation, relative to 0 minute incubation

Row | SMILES | % remaining after 15 min ([1]; human, s9, 15 min, pH 7) | % remaining after 30 min ([1]; human, s9, 30 min, pH 7) | Calcium (% inhibition at 20 μM) (Jurkat clone E6.1 cells) | IC50 [2, 4] | % inhibition of eosinophils ([3]; 5 mg/kg/day for 4 days) | % inhibition of lymphocytes ([3]; 5 mg/kg/day for 4 days) | % inhibition of neutrophils ([3]; 5 mg/kg/day for 4 days) | IC50 ([2]; Rattus norvegicus, RBL-2H3, inhibition of DNP-HSA antigen-induced hexosaminidase release) | % inhibition of eosinophils ([3]; 1 mg/kg/day for 4 days) | % inhibition of lymphocytes ([3]; 1 mg/kg/day for 4 days) | % inhibition of neutrophils ([3]; 1 mg/kg/day for 4 days) | % remaining after 15 min [1, 5] | % remaining after 30 min [1, 6]
1 | CC=C1CCC2C3C(CC[C@]12C)[C@@]1(C)CCC(N)CC1[C@@H](O)[C@@H]3O (some centres unmarked) [Compound 49] | 93 ± 6% | 85 ± 8% | 26.8% | 11 µM | 52% | 73% | 36% |  |  |  |  |  | 
2 | C=C1CCC2C3C(CC[C@]12C)[C@@]1(C)CCC(N)CC1[C@@H](O)[C@@H]3O (some centres unmarked) [Compound 53] |  |  | −0.8% |  | 24% | 13% | 57% | 17.6 µM |  |  |  |  | 
3 | CC(F)=C1CCC2C3C(CC[C@]12C)[C@@]1(C)CCC(N)CC1[C@@H](O)[C@@H]3O (some centres unmarked) [Compound 64] | 104 ± 4% | 88 ± 5% |  |  | 62% | 81% | 70% |  |  |  |  |  | 
4 | COC(=O)C=C1CCC2C3C(CC[C@]12C)[C@@]1(C)CCC(N)CC1[C@@H](O)[C@@H]3O (some centres unmarked) [Compound 69] | 73 ± 24% | 63 ± 6% |  |  |  |  |  |  |  |  |  |  | 
5 | C=C1CCC2C3C(CC[C@]12C)[C@@]1(C)CCC(N)CC1[C@@H](OC)[C@@H]3OC (some centres unmarked) [Compound 79] | 67 ± 6% | 61 ± 14% | 9.1% | 18.4 µM |  |  |  |  |  |  |  |  | 
6 | CC(F)=C1CCC2C3C(CC[C@]12C)[C@@]1(C)CCC(N)CC1[C@@H](O)[C@@H]3O (some centres unmarked) [Compound 95] |  |  | 11.2% | 13.5 µM | 14% | 30% | 45% |  |  |  |  |  | 
7 | CCC1CCC2C3C(CC[C@]12C)[C@@]1(C)CCC(N)CC1[C@@H](O)[C@@H]3O (some centres unmarked) [Compound 96] | 92 ± 19% | 94 ± 21% |  |  | −9% | 19% | 40% |  |  |  |  |  | 
8 | CCC1CCC2C3C(CC[C@]12C)[C@@]1(C)CCC(N)CC1[C@@H](O)[C@@H]3O (some centres unmarked) [Compound 97] | 94 ± 10% | 89 ± 12% | 43.0% | 9.3 µM | 40% | 56% | 52% |  |  |  |  |  | 
9 | C=C1CCC2C3C(O)C(O)C4CC(NCc5cccnc5)CCC4(C)C3CCC12C.Cl.Cl (centres unmarked) [Compound 107] |  |  | 11.6% | 17.2 µM |  |  |  |  | −122% | −28% | 23% |  | 
10 | C=C1CCC2C3C(CC[C@]12C)[C@@]1(C)CC[C@@H](NC(=O)Nc2ccccc2)CC1[C@@H](O)[C@@H]3O (some centres unmarked) [Compound 137] | 93 ± 31% | 71 ± 17% |  |  |  |  |  |  |  |  |  |  | 
11 | C=C1CCC2C3C(CC[C@]12C)[C@@]1(C)CC[C@@H](NC(=O)NCCC)CC1[C@@H](O)[C@@H]3O (some centres unmarked) [Compound 138] |  |  | 9.0% | 15 µM |  |  |  |  | −52% | 33% | 35% |  | 
12 | CC1(C)CCC2=C1CCC1C2[C@@H](O)[C@H](O)C2C[C@@H](N)CC[C@]12C (some centres unmarked) [Compound 139] |  |  | 26.3% | 10.3 µM |  |  |  |  |  |  |  | 100% | 100%
13 | CC1(C)CCC2=C1CCC1C2C(O)C(O)C2CC(NCc3ccc(F)c(F)c3)CCC21C.Cl (centres unmarked) [Compound 141] |  |  | 36.3% | 9.4 µM |  |  |  |  |  |  |  | 100 ± 9% | 26 ± 4%
14 | CCC1(C)CCC2=C1CCC1C2C(O)C(O)C2CC(NCc3ccccc3)CCC21C.Cl (centres unmarked) [Compound 147] |  |  | 36.3% | 18.1 µM |  |  |  |  | 40% | 36% | 58% |  | 
